# From US20040138272A1, “1,4-Substituted cyclohexane derivatives” (priority 2002, published 2004)
# Entries after “also recorded” stand apart in the source; their conditions may differ.
# Experiments:
# [1] = tested on: SK-MEL-1 human malignant melanoma; test: Thymidine uptake anti-proliferation assay, SK-MEL-1; type: cell-based
# Description: (§1) The antiproliferative effects of BA-1037 were tested by a thymidine uptake assay with several different human cancer cell lines grown in culture. The cell lines tested were HEC-1B human adnocarcinoma, SK-MEL-1 human malignant melanoma, and Caco-2 human colorectal adenocarcinoma. The cells were seeded in a 96 well plate and after 2 hours the cells were treated with test BA-1037 compound or with control solutions. The control solutions were PBS as a negative control, and with complete medium plus the DMSO vehicle (at 0.1% or 1%). BA-1037 was added at three different concentrations: 1 uM, 10, uM or 100 uM. Each control solution and test solution was plated in triplicate for each cell line. The plate was incubated at 37 C. with 5% CO2 in a humidified atmosphere for approximately 54 hours. A volume of 0.02 ml of 3H-methy thymidine which contained 1.0 uCi was added to each well. The culture was incubated a further 18 hours. Using an automated cell harvestor the cells from each well were aspirated onto a glass microfiber filter. The cells were broken with distilled water to leave mainly the DNA on the filter. Each filter was placed in a scintillation counter (TopCount NXT). At appropriate settings for the 3H, each filter was counted for one minute. The results are expressed as CPM (counts per minute).
# [2] = tested on: HEC-1B human adnocarcinoma; test: Thymidine uptake anti-proliferation assay, HEC-1B; type: cell-based; conditions: 100 uM, versus DMSO and PBS controls; Dihydrochloride
# Description: as §1
# [3] = target: T1, human Rho kinase II (ROCK-II (h)) (Homo sapiens, UniProt O75116); test: Commercial inhibition assay with recombinant human ROCKII, IC50 curves (FIGS. 8, 9); type: biochemical
# T1 construct: purchased
# From the text: Referring to FIGS. 8 and 9 inhibiton of ROCKII activity and determination of IC50 may also be done throught the use of known (i.e. commercial) inhibition assays that use recombinant human ROCKII.
# [4] = tested on: NG108-15 neuronal cell line; test: Rapid bioassay of neurite growth in NG108-15 cells; type: cell-based; conditions: 35 uM
# Description: When neurons are placed on inhibitory substrates in tissue culture, the neurons remain rounded. When an effective Rho kinase inhibitor is added to the neurons, the neurons are able to grow neurites on myelin substrates. The time that it takes for neurons to grow neurites after the addition of a Rho kinase inhibitor is about the same as the time that it takes for neurons to grow neurites if the neurons had been plated on growth permissive substrate such as laminin or polylysine, which time is typically 1 to 2 days in cell culture. An assessment of resulting neurite growth can be scored by visual means. If needed, a quantitative assessment of neurite growth can be performed. This involves measuring after a time such as 1 to 2 days the neurite length a) in control cultures where neurons are plated on myelin substrates and left untreated with Rho kinase inhibitor for such time, b) in positive control cultures, wherein for example neurons are plated on polylysine but left untreated with Rho kinase inhibitor for such time, and c) in cultures analogous to a) and b) that are treated with different concentrations of a Rho kinase inhibitor for such time. […] In this assay, NG108 cells are plated on plastic in the presence or absence of the test substance (a Rho kinase inhibitor). […] The relative efficacy can be assessed by fixing the cultures 5 hours after plating, and counting the number of cells that have grown neurites.
# A rapid bioassay is used to determine the effect of a test compounds on the stimulation of neurite growth in vitro. A neuronal cell line, NG108-15 (ATCC HB-12317), is maintained in culture in Dulbecco's minimal essential medium (DMEM) supplemented with 10% fetal bovine serum, Penicillin/Streptomycin and HAT supplement (Gibco/BRL). For the bioassay, the cells are collected by trypsinisation and ressuspended in DMEM supplemented with 5% FBS, Penicillin/Streptomycin, HAT supplement and 0.25 mg/ml cAMP, adjusted to 1.0×10^4 cells/ml. The cells are plated into wells of a 96 well plate at 100 μls (1000 cells)/well. Cells are incubated 4 h at 37° C. and 5% CO2 in presence of small molecules or cethrin at a concentration of 1000 cells per well of a 96-wells plate in a final volume of 100 ul.
# After incubation, cells are fixed by adding […] 16% PFA and 5.4 μls 2.5% glutaraldehyde to the media in each well. The wells are stained with cresyl violet 0.05% , 100 μls/well for 15 min. Cells with neurites (length≧one cell body) are counted using an inverted light microscope. The % neurite outgrowth is determined by calculating the number of cells with neurites over the total number of counted cells.
# [5] = target: glycogen synthatase kinase 3 beta (GSKB) (Homo sapiens, UniProt P49841); test: GSK B kinase activity of compounds (FIG. 10); type: biochemical; conditions: 10 uM
# Chain of glycogen synthatase kinase 3 beta (GSKB) (P49841 whole entry): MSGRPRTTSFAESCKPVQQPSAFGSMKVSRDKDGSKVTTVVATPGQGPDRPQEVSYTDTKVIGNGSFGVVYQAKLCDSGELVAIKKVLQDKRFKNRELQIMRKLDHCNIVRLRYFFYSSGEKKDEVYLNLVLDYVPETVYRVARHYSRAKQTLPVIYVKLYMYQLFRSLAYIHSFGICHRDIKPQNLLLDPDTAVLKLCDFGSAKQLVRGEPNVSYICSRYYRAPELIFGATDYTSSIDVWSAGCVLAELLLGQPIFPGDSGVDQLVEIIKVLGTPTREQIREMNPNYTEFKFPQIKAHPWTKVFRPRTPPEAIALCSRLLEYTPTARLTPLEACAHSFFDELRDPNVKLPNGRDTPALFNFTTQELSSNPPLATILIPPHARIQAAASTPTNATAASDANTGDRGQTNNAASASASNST
# T1 sequence (O75116 whole entry): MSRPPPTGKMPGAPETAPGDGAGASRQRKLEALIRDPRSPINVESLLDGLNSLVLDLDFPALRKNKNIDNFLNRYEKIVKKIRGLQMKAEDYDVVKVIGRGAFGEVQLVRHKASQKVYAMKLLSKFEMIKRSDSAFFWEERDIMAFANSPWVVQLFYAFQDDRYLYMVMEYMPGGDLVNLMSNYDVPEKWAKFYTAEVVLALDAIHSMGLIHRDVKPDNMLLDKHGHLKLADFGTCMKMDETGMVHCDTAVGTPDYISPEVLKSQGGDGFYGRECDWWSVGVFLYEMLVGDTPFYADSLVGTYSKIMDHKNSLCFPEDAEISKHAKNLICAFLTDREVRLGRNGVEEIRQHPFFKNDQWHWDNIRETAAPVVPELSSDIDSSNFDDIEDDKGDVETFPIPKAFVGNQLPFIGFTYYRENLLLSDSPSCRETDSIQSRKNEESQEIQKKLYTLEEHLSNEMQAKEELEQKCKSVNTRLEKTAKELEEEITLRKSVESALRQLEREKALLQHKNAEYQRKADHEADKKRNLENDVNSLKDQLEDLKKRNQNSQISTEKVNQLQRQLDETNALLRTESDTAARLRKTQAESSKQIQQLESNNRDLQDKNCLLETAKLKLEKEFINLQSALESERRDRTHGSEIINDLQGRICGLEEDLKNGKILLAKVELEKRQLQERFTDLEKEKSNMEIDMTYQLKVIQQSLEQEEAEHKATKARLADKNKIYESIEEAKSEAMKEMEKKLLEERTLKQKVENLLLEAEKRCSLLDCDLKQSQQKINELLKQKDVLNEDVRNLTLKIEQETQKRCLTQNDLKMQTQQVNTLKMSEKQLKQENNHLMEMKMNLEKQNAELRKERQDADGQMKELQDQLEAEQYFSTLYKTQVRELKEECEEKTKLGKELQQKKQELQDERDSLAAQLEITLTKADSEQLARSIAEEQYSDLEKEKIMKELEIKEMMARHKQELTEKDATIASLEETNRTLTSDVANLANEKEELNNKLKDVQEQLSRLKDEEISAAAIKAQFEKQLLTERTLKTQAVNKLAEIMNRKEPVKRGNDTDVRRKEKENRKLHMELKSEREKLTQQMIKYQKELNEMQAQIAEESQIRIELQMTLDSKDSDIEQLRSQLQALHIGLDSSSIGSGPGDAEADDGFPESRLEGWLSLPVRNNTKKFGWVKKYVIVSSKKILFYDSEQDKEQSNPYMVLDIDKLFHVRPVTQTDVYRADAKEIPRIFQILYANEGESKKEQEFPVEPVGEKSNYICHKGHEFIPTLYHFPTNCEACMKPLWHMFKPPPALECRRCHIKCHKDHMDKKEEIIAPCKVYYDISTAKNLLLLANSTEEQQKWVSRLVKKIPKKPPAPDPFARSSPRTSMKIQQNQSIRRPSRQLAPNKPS
smiles,measurement,setting,value
"CCCCCCCCNN[C@H]1CC[C@H](C(=O)Nc2ccncc2)CC1.Cl.Cl [BA-1037, trans-4-[N′-(Octyl)hydrazino]-N-(4′″-pyridyl)cyclohexane Carboxamide Dihydrochloride]","cell proliferation, all three doses","[1]; 1 uM, 10 uM and 100 uM, versus DMSO and PBS controls, Dihydrochloride",significantly blocked cell proliferation; also recorded: reduce cell proliferation
same,"cell proliferation, highest concentration tested",[1]; 100 uM,complete arrest of cell proliferation
same,"cell proliferation, highest dose tested",[2],significantly blocked cell proliferation; also recorded: completely block proliferation
same,IC50,[3],6.5 µM
same,"neurite growth by bioassay, normalized to BA-1016 (FIG. 7)",[4],equally well as BA-1016
same,activity towards GSKB (FIG. 10),[5],can exert activity
